In this assay the test system is HCV 1b-377-neo replicon cells. Briefly: HCV Replicon assay, HCV 1b-377-neo replicon cells. It is filed as cell-based, HCV 1b genotype. The settings on record: Hepatitis C virus, Table 2, read-out: Range (EC50 against HCV 1b).

pEC50: −log10 of the molar value.

Consider `COC(=O)N[C@H](C(=O)N1CCC[C@H]1c1ncc(-c2ccc(-c3ccc(-c4cnc([C@@H]5CCCN5C(=O)[C@@H](NC(=NC#N)N(C)C)C(C)C)[nH]4)cc3)cc2)[nH]1)C(C)C` [cj-17, methyl ((1S)-1-(((2S)-2-(5-(4′-(2-((2S)-1-(N-(cyano(dimethyl)carbamimidoyl)-L-valyl)-2-pyrrolidinyl)-1H-imidazol-5-yl)-4-biphenylyl)-1H-imidazol-2-yl)-1-pyrrolidinyl)carbonyl)-2-methylpropyl)carbamate], for which the pEC50 (usually −log10 of the EC50, conventionally taken in molar units) was 9.00 to 12.00.

These data come from patent publication US7745636B2, “Hepatitis C virus inhibitors” (Bristol-Myers Squibb Company, priority 2006, dated 2010).
